# Measurements published in patent US10100036B2, “Lappaconitine aza-cinnamic acid derivatives with anti-tumor activities and a method of preparing the same” (priority 2016, dated 2018).
# Experiments:
# [1] = test system: human gastric adenocarcinoma cell line (SGC-7901); assay: tumor cell proliferation inhibition test, MTT method; type: cell-based; settings: 48 hours treatment
# Protocol: (§1) The compounds of the present invention were subjected to tumor cell proliferation inhibition test, and the conventional MTT method was used as the test method.
# (§2) Cell lines selected are human prostate cancer cell line (PC-3), human gastric adenocarcinoma cell line (SGC-7901), and human lung cancer cell (A-549). The culture medium was DMEM+15% NBS+double antibody.
# (§3) Preparation of the sample solutions: compounds were dissolved in DMSO (Merck), and PBS (−) was add to 100 μL of the solution or homogeneous suspension. The solution or suspension was diluted with DMSO and PBS(−) to final concentrations of 0.1, 1, 10, 20, 40, 60, 80, 100 μmol/L.
# (§4) Anti-tumor agent 5-fluorouracil (5-FU) was used as control and was prepared in the same way as the compounds.
# (§5) Living cells mitochondria in the dehydrogenase can reduce yellow MTT to water-insoluble blue-violet product MT (MTT formazan), deposited in the cells. The amount of production is proportional to the number of living cells. […] DMSO can dissolve blue violet crystals, and the color depth is proportional to the amount contained, so the absorbance measured by the microplate reader can reflect the cell viability.
# (§6) The exponential phase cells were digested and counted and seeded in 96-well plates at a density of 2×10^4/mL at 100 μl per well. After 24 hours of incubation, the cells to be tested were treated with 0.1, 1, 10, 20, 40, 60, 80, 100 μmol/L of the compounds. Each experimental group had 5 wells in each concentration, and the culture medium containing 0.4% DMSO was used as control. After 48 hours, the supernatant was discarded, and 100 μl of MTT ((2-(4,5-dimethyl-2-thiazolyl)-3,5-diphenyl-2H-tetrazole hydrobromide) (1 mg/mL) was added to each well. After another 4 hours, the supernatant was discarded, and 100 μL of DMSO was added to each well. After mixing, the absorbance was measured at 570 nm using a microplate reader. An IC50 calculation software was used to determine the half inhibitory concentration (IC50).
# [2] = test system: human lung cancer cell (A-549); assay: as above; type: cell-based; settings: 48 hours treatment, A549
# Protocol: as §1, §2, §3, §4, §5, §6
# [3] = test system: human prostate cancer cell line (PC-3); assay: as above; type: cell-based; settings: 48 hours treatment
# Protocol: as §1, §2, §3, §4, §5, §6
# [4] = test system: PC-3, SGC-7901 and A-549 tumor cells; assay: tumor cell proliferation inhibition test, summary over the three cell lines; type: cell-based, human; settings: in the 3 cell lines tested
# Protocol: as §1, §2, §6
Structure (SMILES),IC50 [1],IC50 [2],IC50 [3],activities compared with 5-fluorouracil [4]
CCN1C[C@]2(OC(=O)c3ccccc3NC(=O)/C(C)=C/c3cccc(C)n3)CC[C@H](OC)[C@]34C1[C@@H](C[C@H]23)[C@@]1(O)C[C@H](OC)C[C@H]2C[C@@H]4[C@]1(O)[C@H]2OC [Compound 18],> 100 µM,> 100 µM,> 100 µM,–
CCN1C[C@]2(OC(=O)c3ccccc3NC(=O)/C=C/c3cccnc3)CC[C@H](OC)[C@]34C1[C@@H](C[C@H]23)[C@@]1(O)C[C@H](OC)C[C@H]2C[C@@H]4[C@]1(O)[C@H]2OC [Compound 2],26.3 ± 0.37 µM,13.4 ± 2.78 µM,26.4 ± 0.36 µM,–
CCN1C[C@]2(OC(=O)c3ccccc3NC(=O)/C=C/c3ccnc(C)c3)CC[C@H](OC)[C@]34C1[C@@H](C[C@H]23)[C@@]1(O)C[C@H](OC)C[C@H]2C[C@@H]4[C@]1(O)[C@H]2OC [Compound 11],10.2 ± 0.45 µM,18.6 ± 0.43 µM,10.2 ± 0.78 µM,equal or better activities than 5-fluorouracil
CCN1C[C@]2(OC(=O)c3ccccc3NC(=O)/C=C(\C)c3ccncc3)CC[C@H](OC)[C@]34C1[C@@H](C[C@H]23)[C@@]1(O)C[C@H](OC)C[C@H]2C[C@@H]4[C@]1(O)[C@H]2OC [Compound 9],> 100 µM,> 100 µM,73.37 ± 0.69 µM,–
CCN1C[C@]2(OC(=O)c3ccccc3NC(=O)/C=C/c3ccccn3)CC[C@H](OC)[C@]34C1[C@@H](C[C@H]23)[C@@]1(O)C[C@H](OC)C[C@H]2C[C@@H]4[C@]1(O)[C@H]2OC [Compound 3],13.7 ± 1.28 µM,–,15.2 ± 1.18 µM,–
CCN1C[C@]2(OC(=O)c3ccccc3NC(=O)/C=C/c3cnccc3C)CC[C@H](OC)[C@]34C1[C@@H](C[C@H]23)[C@@]1(O)C[C@H](OC)C[C@H]2C[C@@H]4[C@]1(O)[C@H]2OC [Compound 6],37.8 ± 0.42 µM,42.65 ± 0.38 µM,33.5 ± 1.17 µM,–
CCN1C[C@]2(OC(=O)c3ccccc3NC(=O)/C=C/c3cc(C)nc(C)c3)CC[C@H](OC)[C@]34C1[C@@H](C[C@H]23)[C@@]1(O)C[C@H](OC)C[C@H]2C[C@@H]4[C@]1(O)[C@H]2OC [Compound 13],18 ± 0.58 µM,32.3 ± 1.34 µM,16.6 ± 1.87 µM,–
CCN1C[C@]2(OC(=O)c3ccccc3NC(=O)/C=C/c3ccncc3)CC[C@H](OC)[C@]34C1[C@@H](C[C@H]23)[C@@]1(O)C[C@H](OC)C[C@H]2C[C@@H]4[C@]1(O)[C@H]2OC [Compound 1],22.5 ± 1.35 µM,9.12 ± 2.53 µM,18.1 ± 0.64 µM,–
CCN1C[C@]2(OC(=O)c3ccccc3NC(=O)/C=C/c3cncc(C)c3)CC[C@H](OC)[C@]34C1[C@@H](C[C@H]23)[C@@]1(O)C[C@H](OC)C[C@H]2C[C@@H]4[C@]1(O)[C@H]2OC [Compound 5],29.6 ± 3.54 µM,13.2 ± 0.39 µM,11.3 ± 0.64 µM,equal or better activities than 5-fluorouracil
CCN1C[C@]2(OC(=O)c3ccccc3NC(=O)/C=C/c3cccc(C)n3)CC[C@H](OC)[C@]34C1[C@@H](C[C@H]23)[C@@]1(O)C[C@H](OC)C[C@H]2C[C@@H]4[C@]1(O)[C@H]2OC [Compound 19],95.1 ± 1.92 µM,> 100 µM,> 100 µM,–
CCN1C[C@]2(OC(=O)c3ccccc3NC(=O)/C=C/c3ccc(C)nc3)CC[C@H](OC)[C@]34C1[C@@H](C[C@H]23)[C@@]1(O)C[C@H](OC)C[C@H]2C[C@@H]4[C@]1(O)[C@H]2OC [Compound 7],39.3 ± 1.74 µM,47.31 ± 0.44 µM,43.3 ± 1.42 µM,–
CCc1cncc(/C=C/C(=O)Nc2ccccc2C(=O)O[C@@]23CC[C@H](OC)[C@]45C([C@@H](C[C@H]24)[C@@]2(O)C[C@H](OC)C[C@H]4C[C@@H]5[C@]2(O)[C@H]4OC)N(CC)C3)c1 [Compound 8],33.5 ± 1.18 µM,25.1 ± 2.23 µM,38.1 ± 0.44 µM,–
CCN1C[C@]2(OC(=O)c3ccccc3NC(=O)/C=C/c3cc(C)ccn3)CC[C@H](OC)[C@]34C1[C@@H](C[C@H]23)[C@@]1(O)C[C@H](OC)C[C@H]2C[C@@H]4[C@]1(O)[C@H]2OC [Compound 14],87.02 ± 0.58 µM,41.3 ± 1.42 µM,67.8 ± 1.3 µM,–
CCN1C[C@]2(OC(=O)c3ccccc3NC(=O)/C=C(\C)c3cccnc3)CC[C@H](OC)[C@]34C1[C@@H](C[C@H]23)[C@@]1(O)C[C@H](OC)C[C@H]2C[C@@H]4[C@]1(O)[C@H]2OC [Compound 4],> 100 µM,67.31 ± 0.44 µM,> 100 µM,–
CCN1C[C@]2(OC(=O)c3ccccc3NC(=O)/C=C/c3cc(C(C)C)ccn3)CC[C@H](OC)[C@]34C1[C@@H](C[C@H]23)[C@@]1(O)C[C@H](OC)C[C@H]2C[C@@H]4[C@]1(O)[C@H]2OC [Compound 17],> 100 µM,> 100 µM,61.3 ± 1.24 µM,–
CCc1cc(/C=C/C(=O)Nc2ccccc2C(=O)O[C@@]23CC[C@H](OC)[C@]45C([C@@H](C[C@H]24)[C@@]2(O)C[C@H](OC)C[C@H]4C[C@@H]5[C@]2(O)[C@H]4OC)N(CC)C3)ccn1 [Compound 12],25.05 ± 0.16 µM,21.7 ± 0.45 µM,13.86 ± 0.1 µM,equal or better activities than 5-fluorouracil
CCc1ccnc(/C=C/C(=O)Nc2ccccc2C(=O)O[C@@]23CC[C@H](OC)[C@]45C([C@@H](C[C@H]24)[C@@]2(O)C[C@H](OC)C[C@H]4C[C@@H]5[C@]2(O)[C@H]4OC)N(CC)C3)c1 [Compound 15],21.8 ± 1.2 µM,47.3 ± 2.56 µM,44.1 ± 2.73 µM,–
"O=c1[nH]cc(F)c(=O)[nH]1 [Compound 5-FU, 5-fluorouracil, reference compound]",22.4 ± 1.67 µM,15.6 ± 3.54 µM,8.17 ± 0.39 µM,–
CCN1C[C@]2(OC(=O)c3ccccc3NC(=O)/C=C/c3cc(C)cc(C)n3)CC[C@H](OC)[C@]34C1[C@@H](C[C@H]23)[C@@]1(O)C[C@H](OC)C[C@H]2C[C@@H]4[C@]1(O)[C@H]2OC [Compound 16],> 100 µM,69.3 ± 1.42 µM,40.8 ± 2.55 µM,–
CCN1C[C@]2(OC(=O)c3ccccc3NC(=O)/C(C)=C/c3ccncc3)CC[C@H](OC)[C@]34C1[C@@H](C[C@H]23)[C@@]1(O)C[C@H](OC)C[C@H]2C[C@@H]4[C@]1(O)[C@H]2OC [Compound 10],> 100 µM,> 100 µM,> 100 µM,–
